Results on one compound are retold here after patent US20090054328A1, “Reagents and Methods for Modulating Gene Expression Related to Hypertension” (The Board of Trustees of the University of Illinois, priority 2005, published 2009).

Test [1] concerns medial smooth muscle layer of aortas and mesenteric arteries. The text has this: (§1) The importance of regulating MLCK expression by Ras signaling in vivo was further investigated by treating SHR with U0126 continuously for 3 weeks. U0126 is a specific inhibitor MEK (Favata et al., 1998J. Biol. Chem. 273: 18623-18632), an upstream regulator of ERK in the Ras signaling pathway (Chien & Hoshijima, 2002, Id.). Rats that were 8 weeks old at the start of treatment were studied because blood pressure increases and blood vessels become thicker between 8 and 12 weeks of age (Yamori, 1984, Id). In these experiments, Systolic blood pressure (SBP) was measured using tail-cuff sphygmomanometry (IITC Incorporated/Life Sciences Institute, Woodland Hills Calif.). Drugs were delivered via an osmotic pump (DURECT Corporation, Cupertino, Calif.) implanted subcutaneously in the shoulder. The pumps (having a 2 mL capacity at a delivery rate of 2.45 μL/hour) were filled with 13.5 mM U0126 (BIOMOL Research Laboratories, Plymouth Meeting, Pa.) dissolved in 50% DMSO or vehicle alone. Three weeks later, rats were sacrificed and aortas were removed. Some vessels were processed for histology, while other tissue was immediately placed in ice-cold acetone containing 10% trichloroacetic acid (TCA) and 10 mM dithiothreitol (DTT). Endothelial cells were removed by gently rubbing the inside of the vessels with a cell lifter and connective tissue was removed by dissection. The cleaned vessels were then frozen on dry ice and stored at −80° C. for biochemical analysis.
Blood vessels were also assessed histologically. […] Cross-sections (5 microns thick) were cut, deparaffinized and stained with Gomort's Trichrome. Nuclei were visualized with Weigert's iron hematoxylin. The thickness of the medial layer was quantified using NIH ImageJ 1.32 software (National Institutes of Health, Bethesda, […].).

For the next test, the system named is MLCK expression in VSMC. The experiment in a line: Blocking Ras signaling in vitro in VSMC: MLCK expression and MLC-P by Western blot. In kind it is cell-based, rat. As to the method:
In view of the results obtained in Example 3 above, the effect of modulating SRF expression or activity on MLCK expression was assayed. To inhibit SRF activity, an adenovirus (AdSRF-S) lacking exons 4 and 5 was used to express a truncated, dominant negative form of SRF in cells (Davis et al., 2002, Id). Control cells were infected with a virus expressing GFP (AdGFP) at the same multiplicity of infection. In these experiments, VSMC were explanted from aortas of 4 to 7 weeks old SHR or WKY rats as previously described (Ross, 1971, J. Cell. Biol. 50: 172-186) and cultured in Dulbeccos's modified Eagles's medium (DMEM) with 10% fetal bovine serum (FBS). VSMC from WKY rats grown in 6-well plates (90-100% confluent) were infected for 2 hours with either an adenovirus that express a short form of SRF (AdSRF-S) (Davis et al., 2002, Id) or a control virus that expresses GFP (AdGFP). The viruses were washed out and the cells were grown as described above for 48 hours. VSMC were harvested and cell lysates were subjected to western blot analyses.
Dominant negative Ras decreased MLCK mRNA expression in VSMC from SHR (FIG. 4C, inset). To investigate downstream events of Ras signaling, VSMC from SHR were treated with antisense oligonucleotides to ERK, a known member of the Ras signaling pathway. […]

Another test has as its system WKY rats. Particulars: age-matched WKY rats, U0126 3 weeks; returned to baseline within 2 weeks of treatment.
Source text: as §1, with “The cleaned vessels were then frozen on dry ice and stored at −80° C. for biochemical analysis.” left out

A further test relates to SHR. The experiment in a line: Systolic blood pressure (tail-cuff) in SHR, drug given continuously for 3 weeks by osmotic pump. Format: in vivo, rat. Particulars: continuous 3 weeks. As to the method:
as §1, with “Rats that were 8 weeks old at the start of treatment were studied because blood pressure increases and blood vessels become thicker between 8 and 12 weeks of age (Yamori, 1984, Id).” left out
Another experiment was conducted to determine if inhibiting Ras signaling could decrease blood pressure in SHR.

For test [2], the system named is ERK-P, MLCK expression and MLC-P. Here is the method: Cells or pieces of blood vessels were extracted in buffer containing 9 M urea, 10 mM DTT and 20 mM Tris, pH 8.0. Protein concentrations were measured using the Bradford Protein Assay (BioRad, Richmond, Calif.) and equivalent amounts of protein were subjected to SDS-PAGE or urea-glycerol PAGE, Proteins separated by SDS-PAGE were transferred to nitrocellulose and probed with an antibody to MLCK (de Lanerolle et al., 1981, Proc. Natl. Acad. Sci. 78: 4738-4742), the broad specificity C4 antibody to actin (Lessard, 1988, Cell. Motil. Cytoskeleton. 10: 349-362), antibodies to Rho A or phosphorylated MPasel (Santa Cruz Biotechnology, Santa Cruz, Calif.) or an antibody to phosphorylated ERK½ (Cell Signaling Technology, Beverly, Mass.). Urea-glycerol PAGE was used to separate the unphosphorylated and phosphorylated forms of MLC20, which was then transferred to nitrocellulose and probed with an antibody to MLC20, wherein the stoichiometry of phosphorylation (mol PO4/mol MLC20) was calculated as previously described (Obara et al., 1989, Pflugers. Arch. 414: 134-138). Ail immunoreactive bands were visualized using enhanced chemiluminescence (Amersham Pharmacia Biotech, Piscataway, N.J.) and quantified densitometrically.
as §1
ERK-P, MLCK expression and MLC-P were assayed in U0126 SHR as described above.

Setting [3] is: U0126-treated SHR compared to control.

Each structure is given as a SMILES string.

Consider `N#CC(=C(/N)Sc1ccccc1N)/C(C#N)=C(\N)Sc1ccccc1N` [U0126], for which the “medial smooth muscle layer in aortas and mesenteric arteries” value in test [1] (SHR receiving U0126 compared to controls) is “thinner”. In test [1] (SHR, 3 weeks U0126, NIH ImageJ, vehicle 117.8±3.69), the “total medial area of aortas” value is given as 66.4±2.79 relative units. Further, the “total medial area of mesenteric arteries” value in test [1] (SHR, 3 weeks U0126, mean from two animals, vehicle 26.88) was found to be 16.0. Further, in the test on MLCK expression in VSMC, the “MLCK expression in VSMC” value is “decreased”. For the same compound, the “SBP in normotensive WKY rats” value with WKY rats is “transient decrease”. Further, the “systolic blood pressure at the end of the 3-week treatment period” value with SHR (SHR 8 weeks old at start, 13.5 mM U0126 in osmotic pump, vehicle 208.9±4.7) is given as 150.4±4.1 mmHg. Also, the “systolic blood pressure at the end of the 3-week treatment period” value in the test on SHR (SHR 16 weeks old at start, osmotic pump, vehicle 221.6) stood at 181.4±0.89 mmHg. In test [2] (SHR after U0126 treatment), the “RhoA expression in aortas” value is reported as “No significant differences” and the “phosphorylated myosin phosphorylase-1 (MPasel-P) in aortas” value is on record as “No significant differences”. Moreover, in test [2] (setting [3]), the “ERK phosphorylation (ERK-P) in blood vessels” value was “decreased”, the “MLC phosphorylation (MLC-P) in blood vessels” value is on record as “decreased” and the “MLCK expression in blood vessels” value is reported as “decreased”.
